Assay results taken from patent US5001222A, “Des-17-histidine-calcitonin” (Rhone-Poulenc Rorer Pharmaceuticals Inc., priority 1988, dated 1991).

What was measured:
[1] = system: serum calcium concentration; assay: Biological assay of calcitonin analogs in vivo: reduction of serum calcium vs salmon calcitonin standard, 2x2 parallel line assay; parameters: species or system Rats; settings: standard salmon calcitonin used in the assay
Protocol: Biological Assay of Calcitonin Analogs in Vivo
The biological potency of des-17-histidine-salmon calcitonin was determined by comparing the reduction of serum calcium concentration which followed administration by graded doses of des-His^17 -SCT and synthetic salmon calcitonin standard. Rats were divided into four groups of seven animals, and each group was assigned at random to a dose of standard or test solution. Low and high doses were chosen from the linear portion of the dose-response curve. For the salmon calcitonin standard, the values were 0.7 and 2.1 ng. peptide/100 g. body weight (BW). This dose approximates 3 and 9 MU/100 g. BW. Peptides were given by subcutaneous injection (0.2 ml/100 g. BW) and blood was withdrawn 1 hour later for serum calcium determination. Sera are processed and analyzed within two hours of collection. […]. Results were analyzed by a 2×2 parallel line assay [Gaddum, J. H., J. Pharm. Pharmacol., 6, 345 (1953)]. The standard salmon calcitonin used was independently determined to contain greater than 4,000 IU/mg. des-His^17 -SCT assayed at 4250 IU/mg.

[2] = literature value, Experientia 32(9), 1104-1106 (1976); cited from earlier work

## CC(C)C[C@H](NC(=O)[C@H](CCCCN)NC(=O)CNC(=O)[C@H](CC(C)C)NC(=O)[C@@H](NC(=O)[C@@H]1CSSC[C@H](N)C(=O)N[C@@H](CO)C(=O)N[C@@H](CC(N)=O)C(=O)N[C@@H](CC(C)C)C(=O)N[C@@H](CO)C(=O)N[C@@H]([C@@H](C)O)C(=O)N1)C(C)C)C(=O)N[C@@H](CO)C(=O)N[C@@H](CCC(N)=O)C(=O)N[C@@H](CCC(=O)O)C(=O)N[C@@H](CC(C)C)C(=O)N[C@@H](Cc1c[nH]cn1)C(=O)N[C@@H](CCCCN)C(=O)N[C@@H](CC(C)C)C(=O)N[C@@H](CCC(N)=O)C(=O)N[C@H](C(=O)N[C@@H](Cc1ccc(O)cc1)C(=O)N1CCC[C@H]1C(=O)N[C@@H](CCCNC(=N)N)C(=O)N[C@H](C(=O)N[C@@H](CC(N)=O)C(=O)N[C@H](C(=O)NCC(=O)N[C@@H](CO)C(=O)NCC(=O)N[C@H](C(=O)N1CCC[C@H]1C(N)=O)[C@@H](C)O)[C@@H](C)O)[C@@H](C)O)[C@@H](C)O [standard salmon calcitonin, Salmon calcitonin]
[1]
  potency content of the standard, independently determined: greater than 4,000 IU/mg

## (1,7-alpha-L-amino-suberic acid) eel calcitonin
[2]
  hypocalcemic potency: about 3400 IU/mg.

## eel calcitonin [synthetic eel calcitonin]
[2]
  hypocalcemic potency: around 4300 IU/mg.
